Data reported in patent publication US20240099214A1, “PLANT DEFENCE GENE EXPRESSION” (UPL Corporation Limited, priority 2021, published 2024).

Experiments:
[1] = test system: Hypersensitive response assisting protein (gene 7, Solyc07g006570.2); assay: qRT-PCR expression of gene 7 in tomato leaves; assay type: in vivo, Tomato ecotype corbarino; parameters: key to RQ1 / RQ2 / RQ3 / RQ mean: relative expression normalized to a-tubulin housekeeping gene
Protocol: (§1) Tomato ecotype “corbarino” reported to be susceptible to TSWV infection was used in the experiment. Plants were grown in pots in a climatic chamber with a photoperiod of 16/8 hour at 25° C.
(§2) The viral strain (TSWV PV PV-0393) was utilized in the experiment. The virus was mechanically inoculated and propagated on tomato “corbarino”. The inoculum was prepared in an ice-cooled mortar grounding 1 gr of infected tomato tissue in 10 ml of Na-phosphate buffer 0.01M. The fresh prepared inoculum was stored in ice before use. Tomato plants at BBCH16 were dusted with Carborundum 600 mesh and selected leaves were rubbed with some droplets of inoculum. After 5 min. plants were sprayed with sterile water to remove the excess of inoculum and preserve the cell turgor.
(§3) Four treatments were compared: i) Mock inoculated; ii) TSWV; iii) 0.25% Laminarin; iv) 0.25% Laminarin+TSWV. In the last treatment the virus was inoculated 24 hrs after the laminarin application.
(§4) Total RNA was extracted from systemic infected tomato leaves by using the Quick-RNA Plant Kit (Zymo Research) following the manufacturer instructions. The extractions were carried out using three plants after 12 h, 24 h, 48 h, 72 h, 7 days after inoculation. Leaves were instantly frozen in liquid nitrogen after cutting to avoid any deterioration of the sample as well as any defense reaction. The RNA concentration was quantified by measuring the absorbance at 260 nm using a Nanodrop 2000 (Thermofisher). The purity of all of the RNA samples was assessed at an absorbance ratio of OD260/280 and OD260/230, while its structural integrity was checked by agarose gel electrophoresis. Only high-quality RNA with OD 260/280 and OD 260/230>2 was used for subsequent steps. Single-stranded cDNA was synthesized from 1 μg of total RNA using an iScript™ Select cDNA Synthesis Kit and random hexamers as primers (Bio-Rad, Milan, Italy), according to the manufacturer's instructions. Three biological replicates were created from the 3 leaves collected to test 15 genes. Alpha tubulin was used as reference gene.
(§5) qPCR reactions were performed with BioRad (Applied Biosystems, Foster City, CA, USA) using SYBR R Green. Each reaction was performed in 20 μl containing 10 μl of 2× Power SYBR Green PCR Master Mix (Life Technologies), 0.2-0.3 μM primers and cDNA samples diluted 1:20. Each qPCR reaction was performed in triplicate. Reactions were run using the cycling parameter described previously (Reid et al., 2006) and the qPCR data were analyzed by the Ct method (Pfaffl, 2001). In order to analyze the qPCR data, a-tubulin gene was used as housekeeping to determine the relative expression level of the other genes analyzed in this work. For the determination of qPCR efficiency of each primer pairs, a standard curve was performed using the following cDNA dilutions: 1:4, 1:16, 1:64; 1:256 and 1:1024. Every measurement was made in triplicate. The corresponding qPCR efficiencies (E) were calculated for every primer pair with the software 7300 System SDS software (Applied Biosystems, Foster City, CA, USA) according to the equation E=(10−1/slope−1)×100 (Rutledge and Stewart, 2008).
(§6) The significance of the differences between the gene expressions levels were compared by one-way ANOVA (p=0.01) and the means were separated by Tukey post-hoc test using SPSS ver.26 ([…]).

[2] = test system: Pti6 (gene 15, U89257.1); assay: qRT-PCR expression of gene 15 in tomato leaves; assay type: in vivo, Tomato ecotype corbarino; parameters: key: relative expression normalized to a-tubulin housekeeping gene
Protocol: as §1, §2, §3, §4, §5, §6

[3] = Gene_15, 12 hr, treatment Laminarin
[4] = Gene_15, 12 hr, treatment Laminarin + virus
[5] = Gene_15, 24 hr, treatment Laminarin
[6] = Gene_15, 24 hr, treatment Laminarin + virus
[7] = Gene_15, 48 hr, treatment Laminarin
[8] = Gene_15, 48 hr, treatment Laminarin + virus
[9] = Gene_15, 72 hr, treatment Laminarin
[10] = Gene_15, 72 hr, treatment Laminarin + virus

Q: What does the source list for laminarin?
A: RQ1 ([1]; 12 hr, Laminarin + virus): 12.106; RQ2 ([1]; 12 hr, Laminarin + virus): 0.8295; RQ3 ([1]; 12 hr, Laminarin + virus): 10.421; RQ mean ([1]; 12 hr, Laminarin + virus): 10.274; RQ1 ([1]; 12 hr, Laminarin alone): 0.9749; RQ2 ([1]; 12 hr, Laminarin alone): 0.8446; RQ3 ([1]; 12 hr, Laminarin alone): 0.8747; RQ mean ([1]; 12 hr, Laminarin alone): 0.8981; RQ1 ([1]; 24 hr, Laminarin + virus): 13.380; RQ2 ([1]; 24 hr, Laminarin + virus): 12.897; RQ3 ([1]; 24 hr, Laminarin + virus): 10.449; RQ mean ([1]; 24 hr, Laminarin + virus): 12.242; RQ1 ([1]; 24 hr, Laminarin alone): 11.623; RQ2 ([1]; 24 hr, Laminarin alone): 12.446; RQ3 ([1]; 24 hr, Laminarin alone): 12.085; RQ mean ([1]; 24 hr, Laminarin alone): 12.051; gene 7 expression compared to TSWV treatment ([1]; 48 hr, 0.25% laminarin + TSWV inoculated 24 hrs later): inverted; gene 7 expression compared to TSWV treatment ([1]; 48 hr, 0.25% laminarin alone): inverted; RQ1 ([1]; 48 hr, Laminarin + virus): 0.7159; RQ2 ([1]; 48 hr, Laminarin + virus): 0.5334; RQ3 ([1]; 48 hr, Laminarin + virus): 0.8167; RQ mean ([1]; 48 hr, Laminarin + virus): 0.6886; RQ1 ([1]; 48 hr, Laminarin alone): 0.7103; RQ2 ([1]; 48 hr, Laminarin alone): 0.7130; RQ3 ([1]; 48 hr, Laminarin alone): 0.6351; RQ mean ([1]; 48 hr, Laminarin alone): 0.6861; RQ1 ([1]; 72 hr, Laminarin + virus): 19.008; RQ2 ([1]; 72 hr, Laminarin + virus): 20.416; RQ3 ([1]; 72 hr, Laminarin + virus): 14.535; RQ mean ([1]; 72 hr, Laminarin + virus): 17.986; RQ1 ([1]; 72 hr, Laminarin alone): 10.549; RQ2 ([1]; 72 hr, Laminarin alone): 0.4677; RQ3 ([1]; 72 hr, Laminarin alone): 11.927; RQ mean ([1]; 72 hr, Laminarin alone): 0.9051; gene 7 overexpression compared to TSWV treatment ([1]; 72 hr, other treatments (laminarin alone, laminarin+TSWV) versus TSWV): overexpression induced by the TSWV is higher compared to the other treatments; RQ1 [2, 3]: 10.060; RQ2 [2, 3]: 10.254; RQ3 [2, 3]: 12.879; RQ mean [2, 3]: 11.065; RQ1 [2, 4]: 12.002; RQ2 [2, 4]: 16.131; RQ3 [2, 4]: 13.764; RQ mean [2, 4]: 13.966; RQ1 [2, 5]: 13.129; RQ2 [2, 5]: 21.363; RQ3 [2, 5]: 13.388; RQ mean [2, 5]: 15.960; RQ1 [2, 6]: 15.392; RQ2 [2, 6]: 14.812; RQ3 [2, 6]: 12.195; RQ mean [2, 6]: 14.133; RQ1 [2, 7]: 32.421; RQ2 [2, 7]: 0.8602; RQ3 [2, 7]: 19.066; RQ mean [2, 7]: 20.030; RQ1 [2, 8]: 16.304; RQ2 [2, 8]: 17.934; RQ3 [2, 8]: 18.959; RQ mean [2, 8]: 17.732; RQ1 [2, 9]: 49.281; RQ2 [2, 9]: 36.255; RQ3 [2, 9]: 43.025; RQ mean [2, 9]: 42.853; RQ1 [2, 10]: 22.660; RQ2 [2, 10]: 30.703; RQ3 [2, 10]: 44.821; RQ mean [2, 10]: 32.728
